Entries after “also recorded” stand apart in the source; their conditions may differ.

In assay [1] the target is T1, PBRM1 (Homo sapiens, UniProt Q86U86).
T1 construct: Soluble nuclear extracts were prepared to assess target degradation as well as abundance of additional SWI/SNF complex subunits; endogenous in cells; host or cells: RH4 (washout experiment) and other RMS cells
Description: Abundance of PBAF subunit PBRM1 in soluble nuclear extracts. To be noted: 24 hours; for degradation of dedicated PBAF subunit PBRM1: 1 μM, soluble nuclear extracts. The format is cell-based. As to the method:
(§1) The inventors investigated the effect of a number of PROTAC inhibitors on fusion-positive and negative RMS cell models. The experiment was designed as follows. Fusion-positive RMS (RH4 and RH30) and fusion-negative RMS (RD and CTR) cells were treated with DMSO or 1 μM dBRD9, DL-ds2-4, or SMARCA4-31 for 24 hours. Soluble nuclear extracts were prepared to assess target degradation as well as abundance of additional SWI/SNF complex subunits and the transcription factor FOXO1 (wild-type and PAX3-FOXO1 fusion).
(§2) The inventors also investigated whether the effect of the compounds was reversible. Fusion-positive RMS RH4 cells were treated for 24 hours with DMSO including […] dBRD9, DL-ds2-4, or SMARCA4-31. After the treatment period cells were collected or washed extensively to remove the compound and incubated in untreated growth media for an additional 24-hour period. Soluble nuclear extracts were prepared to assess target degradation and recovery.

In assay [2] the test system is DPF2. Description: Abundance of BAF subunit DPF2 in soluble nuclear extracts. The assay is classed as cell-based. To be noted: 1 μM, 24 hours. As to the method:
as §1

Assay [3] has as its system SMARCC1. Nature of the assay: Abundance of SWI/SNF subunit SMARCC1 in soluble nuclear extracts. The format is cell-based. To be noted: 1 μM, 24 hours. As to the method:
as §1

Assay [4] deals with PAX3-FOXO1 fusion. Description: Western blot of soluble nuclear extracts: PAX3-FOXO1 fusion loss in RH4 cells. To be noted: 24 hours; for loss of the PAX3-FOXO1 fusion: 1 μM; for PROTAC concentration at which PAX3-FOXO1 is fully depleted: FIG. 6A. The format is cell-based, human. As to the method: as §1, §2
(§3) In FIG. 6A, RH4 cells were treated for 24 hours with the indicated dose of SMARCA4-31 (labeled S4-31) or DL-dS2-4 (labeled S2-4).
(§4) In FIG. 6B, RH4 cells were treated with 125 nM SMARCA4-31 (labeled S4-31) or 250 nM DL-dS2-4 (labeled S2-4) for the indicated time.
In general terms: In western blotting, separated proteins are transferred to a membrane and probed.

Assay [5] relates to SMS-CTR cells. Nature of the assay: Incucyte cell proliferation, growth-curve AUC dose-response, SMS-CTR. The assay is classed as cell-based. To be noted: SMS-CTR (fusion-negative), 96-hour, AUC of growth curve, initial data, FIG. 7A. As to the method: (§5) In FIG. 7A, RH4 (a PAX3-FOXO1 fusion-positive rhabdomyosarcoma cell line) and SMS-CTR (a PAX3-FOXO1 fusion-negative rhabdomyosarcoma cell line) cells were treated with increasing concentrations of SMARCA4-31 or DL-dS2-4 for a 96-hour period, and cell proliferation was monitored on an Incucyte® system. […] We explored why RH4 and SMS-CTR cells display relatively high sensitivity to PROTAC treatment. The CRBN gene expresses the protein cereblon, a component of an E3 ubiquitin ligase complex. By analyzing CRBN gene expression using RNA-seq from the Cancer Cell Line Encyclopedia (CCLE) database, we show in FIG. 7B, that RH4 and SMS-CTR cells express high levels of CRBN compared to other rhabdomyosarcoma (RMS) cell lines.

Assay [6] deals with SMARCB1. Nature of the assay: Abundance of SWI/SNF subunit SMARCB1 in soluble nuclear extracts. The format is cell-based. The note with it: 1 μM, 24 hours. As to the method: as §1
The target in assay [7] is T2, BRD9 (Homo sapiens, UniProt Q9H8M2).
T2 construct: Soluble nuclear extracts were prepared to assess target degradation as well as abundance of additional SWI/SNF complex subunits; endogenous in cells; host or cells: RH4, RH30, RD, CTR rhabdomyosarcoma cells
T2 sequence (Q9H8M2 1-597): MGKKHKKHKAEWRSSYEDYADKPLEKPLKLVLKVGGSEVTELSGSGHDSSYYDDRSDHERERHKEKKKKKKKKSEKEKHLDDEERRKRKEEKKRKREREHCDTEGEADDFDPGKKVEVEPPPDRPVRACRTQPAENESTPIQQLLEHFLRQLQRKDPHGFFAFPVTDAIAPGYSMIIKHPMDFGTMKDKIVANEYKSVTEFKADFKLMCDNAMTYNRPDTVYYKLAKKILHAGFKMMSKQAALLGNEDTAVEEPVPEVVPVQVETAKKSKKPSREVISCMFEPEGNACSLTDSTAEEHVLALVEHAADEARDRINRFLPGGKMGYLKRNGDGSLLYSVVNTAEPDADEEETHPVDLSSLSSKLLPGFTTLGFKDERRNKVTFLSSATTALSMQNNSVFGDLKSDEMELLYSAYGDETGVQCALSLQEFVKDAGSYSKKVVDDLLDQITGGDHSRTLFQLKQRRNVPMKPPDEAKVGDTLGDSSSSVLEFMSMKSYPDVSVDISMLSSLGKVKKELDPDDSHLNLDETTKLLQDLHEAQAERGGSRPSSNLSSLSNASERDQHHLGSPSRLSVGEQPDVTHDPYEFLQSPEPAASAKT
Nature of the assay: Abundance of GBAF subunit BRD9 in soluble nuclear extracts. The format is cell-based. To be noted: 1 μM, 24 hours. As to the method:
as §1

Assay [8] deals with SMARCA4 and SMARCA2. Nature of the assay: Western blot of soluble nuclear extracts: ATPase (SMARCA4/SMARCA2) degradation in RH4 / rhabdomyosarcoma cells. The assay is classed as cell-based, human. To be noted: for PROTAC exposure time until ATPase depletion is observed: 125 nM SMARCA4-31 or 250 nM DL-dS2-4, FIG. 6B; for dose required for maximal ATPase depletion: FIG. 6A; for loss of ATPases SMARCA4/SMARCA2: rhabdomyosarcoma cells, 1 μM, 24-hour treatment, western blot. As to the method:
as §1, §2, §3, §4

Assay [9] has as its system RH4 cells. Nature of the assay: Incucyte cell proliferation, growth-curve AUC dose-response, RH4. The assay is classed as cell-based, human. To be noted: RH4 (fusion-positive), 96-hour, AUC of growth curve, initial data, FIG. 7A. As to the method:
as §5

For assay [10], the target named is T3, FOXO1 (Homo sapiens, UniProt Q12778).
T3 construct: In CTR cells, which only express the wild-type FOXO1; endogenous in cells; host or cells: CTR (SMS-CTR) cells
Description: Western blot of soluble nuclear extracts: wild-type FOXO1 loss in CTR cells. The assay is classed as cell-based. To be noted: 1 μM, 24 hours. As to the method:
as §1

For assay [11], the target named is T4, PAX3-FOXO1 (Homo sapiens, UniProt P23760).
T4 construct: endogenous in cells
Nature of the assay: LC/MS of BAF-associated transcription factors in rhabdomyosarcoma cells: PAX3-FOXO1. To be noted: 1 μM, 24-hour treatment. The format is cell-based. The source says: (§6) In addition to PAX3-FOXO1, depleted core-regulatory transcription factors included MYOD1, an essential factor in rhabdomyosarcoma cell growth.

In assay [12] the test system is MYOD1. Nature of the assay: LC/MS of BAF-associated transcription factors in rhabdomyosarcoma cells: MYOD1. The assay is classed as cell-based. The note with it: 1 μM, 24-hour treatment.
Text: as §6

Assay [13] concerns RH4 cells. Nature of the assay: Tn5 transposition library fragment length distribution (chromatin accessibility) in RH4 cells. The format is cell-based, human. The note with it: 24 hours, with or without washout and 24-hour recovery, FIG. 5. As to the method: Finally, the inventors determined if the reversible disruption of the SWU/SNF complex results in altered chromatin accessibility. FP-RMS RH4 cells were treated for 24 hours with DMSO or SMARCA4-31. A third group was treated with SMARCA4-31 for 24 hours before washout, and a 24-hour recovery period. 50.000 cells were used. Tn5 transposition followed by Illumina library amplification (15 cycles). Libraries were run on Bioanalyzer to assess fragment length distribution.

T1 sequence (Q86U86 whole entry): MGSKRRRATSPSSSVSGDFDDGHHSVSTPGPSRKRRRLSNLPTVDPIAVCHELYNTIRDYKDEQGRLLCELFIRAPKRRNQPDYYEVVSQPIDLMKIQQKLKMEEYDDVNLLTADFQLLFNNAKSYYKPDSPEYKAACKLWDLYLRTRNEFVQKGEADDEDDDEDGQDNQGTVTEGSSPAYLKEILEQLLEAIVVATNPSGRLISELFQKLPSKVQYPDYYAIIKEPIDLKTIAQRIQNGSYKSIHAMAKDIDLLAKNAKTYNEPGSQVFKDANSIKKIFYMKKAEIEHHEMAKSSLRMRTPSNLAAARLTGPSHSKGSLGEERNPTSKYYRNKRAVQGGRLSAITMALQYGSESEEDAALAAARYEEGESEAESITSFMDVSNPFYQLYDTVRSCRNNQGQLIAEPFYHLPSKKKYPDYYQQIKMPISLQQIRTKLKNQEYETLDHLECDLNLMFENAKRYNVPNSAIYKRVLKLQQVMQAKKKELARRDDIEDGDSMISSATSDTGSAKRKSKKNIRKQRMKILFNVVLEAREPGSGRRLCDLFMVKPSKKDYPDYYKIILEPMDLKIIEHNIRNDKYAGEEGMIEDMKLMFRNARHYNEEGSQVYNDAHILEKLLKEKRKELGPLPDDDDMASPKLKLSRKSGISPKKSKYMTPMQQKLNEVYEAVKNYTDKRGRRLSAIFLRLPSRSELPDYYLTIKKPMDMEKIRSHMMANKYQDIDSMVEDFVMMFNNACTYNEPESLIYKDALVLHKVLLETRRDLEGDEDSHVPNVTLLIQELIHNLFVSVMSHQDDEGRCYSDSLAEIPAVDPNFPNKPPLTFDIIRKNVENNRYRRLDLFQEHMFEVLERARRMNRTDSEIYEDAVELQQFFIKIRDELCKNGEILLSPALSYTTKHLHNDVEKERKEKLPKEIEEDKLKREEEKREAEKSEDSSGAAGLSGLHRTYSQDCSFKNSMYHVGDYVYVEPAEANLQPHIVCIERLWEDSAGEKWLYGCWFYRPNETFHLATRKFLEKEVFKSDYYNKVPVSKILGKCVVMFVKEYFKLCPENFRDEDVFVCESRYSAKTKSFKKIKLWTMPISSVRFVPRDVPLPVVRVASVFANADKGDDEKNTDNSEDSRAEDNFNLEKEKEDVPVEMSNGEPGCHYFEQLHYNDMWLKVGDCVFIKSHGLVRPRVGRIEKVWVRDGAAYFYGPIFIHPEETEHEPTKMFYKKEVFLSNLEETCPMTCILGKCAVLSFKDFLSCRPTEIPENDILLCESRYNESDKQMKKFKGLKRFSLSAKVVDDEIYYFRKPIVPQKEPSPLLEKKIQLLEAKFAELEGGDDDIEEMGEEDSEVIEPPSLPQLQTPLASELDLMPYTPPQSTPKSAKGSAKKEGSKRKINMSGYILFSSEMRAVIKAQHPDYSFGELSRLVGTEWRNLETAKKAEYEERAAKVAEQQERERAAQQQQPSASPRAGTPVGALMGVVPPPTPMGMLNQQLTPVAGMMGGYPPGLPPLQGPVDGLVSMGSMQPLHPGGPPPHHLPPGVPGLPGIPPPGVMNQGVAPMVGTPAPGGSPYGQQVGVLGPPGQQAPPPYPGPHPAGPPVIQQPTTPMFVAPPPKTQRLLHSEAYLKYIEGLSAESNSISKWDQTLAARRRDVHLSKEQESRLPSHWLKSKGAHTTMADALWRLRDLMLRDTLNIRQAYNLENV
T3 sequence (Q12778 whole entry): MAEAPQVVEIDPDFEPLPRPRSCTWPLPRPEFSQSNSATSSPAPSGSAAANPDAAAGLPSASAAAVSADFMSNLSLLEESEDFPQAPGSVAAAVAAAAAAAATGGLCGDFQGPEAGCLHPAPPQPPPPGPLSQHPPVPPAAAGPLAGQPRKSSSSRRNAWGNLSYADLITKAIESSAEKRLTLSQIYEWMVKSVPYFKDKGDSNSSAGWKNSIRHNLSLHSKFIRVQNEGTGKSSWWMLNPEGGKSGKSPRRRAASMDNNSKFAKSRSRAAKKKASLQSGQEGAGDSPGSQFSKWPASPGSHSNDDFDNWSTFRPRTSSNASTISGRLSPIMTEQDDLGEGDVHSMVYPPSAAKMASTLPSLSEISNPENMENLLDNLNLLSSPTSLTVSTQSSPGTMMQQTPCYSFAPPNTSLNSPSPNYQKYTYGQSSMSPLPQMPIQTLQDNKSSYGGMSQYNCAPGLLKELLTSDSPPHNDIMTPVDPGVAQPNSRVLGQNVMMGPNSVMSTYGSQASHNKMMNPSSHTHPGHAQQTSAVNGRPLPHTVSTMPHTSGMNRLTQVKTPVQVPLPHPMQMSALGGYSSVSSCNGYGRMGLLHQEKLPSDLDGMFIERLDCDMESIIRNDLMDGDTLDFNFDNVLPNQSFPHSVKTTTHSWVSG
T4 sequence (P23760 with tags, fused parts or gaps limits assumed): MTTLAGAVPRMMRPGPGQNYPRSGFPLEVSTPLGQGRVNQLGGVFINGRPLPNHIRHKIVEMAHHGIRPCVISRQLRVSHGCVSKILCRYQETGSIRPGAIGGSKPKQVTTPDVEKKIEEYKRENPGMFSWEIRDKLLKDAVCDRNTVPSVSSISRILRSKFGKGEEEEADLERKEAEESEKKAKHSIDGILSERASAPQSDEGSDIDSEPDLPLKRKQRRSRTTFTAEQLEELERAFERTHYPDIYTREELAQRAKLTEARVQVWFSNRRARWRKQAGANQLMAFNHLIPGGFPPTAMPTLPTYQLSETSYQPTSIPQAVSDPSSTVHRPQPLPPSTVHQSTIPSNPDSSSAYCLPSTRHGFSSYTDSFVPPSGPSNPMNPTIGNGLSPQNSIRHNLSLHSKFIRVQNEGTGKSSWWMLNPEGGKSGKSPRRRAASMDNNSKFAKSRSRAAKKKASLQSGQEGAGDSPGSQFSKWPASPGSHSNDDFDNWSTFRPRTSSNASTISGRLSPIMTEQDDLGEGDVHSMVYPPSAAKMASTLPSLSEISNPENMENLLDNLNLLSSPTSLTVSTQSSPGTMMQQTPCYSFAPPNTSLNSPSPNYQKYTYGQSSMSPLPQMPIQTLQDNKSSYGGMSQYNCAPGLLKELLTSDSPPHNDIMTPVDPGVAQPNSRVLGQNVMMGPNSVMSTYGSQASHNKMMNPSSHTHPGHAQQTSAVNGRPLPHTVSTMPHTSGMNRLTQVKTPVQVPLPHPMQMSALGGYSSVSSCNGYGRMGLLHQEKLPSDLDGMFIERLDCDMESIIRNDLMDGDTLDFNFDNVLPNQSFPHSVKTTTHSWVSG

As for `O=C1CCC(N2C(=O)c3cccc(NCCCCNC(=O)c4cccc(C#Cc5cc(NC(=O)Nc6ccnc(Cl)c6)ccn5)c4)c3C2=O)C(=O)N1` (racemic) [DL-dS2-4], the “degradation of dedicated PBAF subunit PBRM1” value in [1] is recorded as “specific degradation”. Moreover, the “abundance of BAF subunit DPF2” value in assay [2] is “remained intact”. In addition, in [3], the “degradation of core SWI/SNF subunit SMARCC1” value is listed as “degraded”. In [4], the “loss of the PAX3-FOXO1 fusion” value is listed as “loss of the PAX3-FOXO1 fusion; also recorded: concurrent loss” and the “PROTAC concentration at which PAX3-FOXO1 is fully depleted” value is listed as 62.5 nM. The “efficacy in inhibiting cell growth (concentration range)” value (shortened to “efficacy in inhibiting cell growth”) in assay [5] was “sub-micromolar efficacy”. Moreover, the “abundance of core subunit SMARCB1” value in [6] is given as “remained intact”. For the same compound, in assay [7], the “abundance of GBAF subunit BRD9” value was “remained intact”. Also, the “PROTAC exposure time until ATPase depletion is observed” value in assay [8] (RH4 cells) is listed as “approximately 20 hours”. Further, in assay [8] (RH4 cells, 24 hours), the “dose required for maximal ATPase depletion” value is 250 nM. Further, the “loss of ATPases SMARCA4/SMARCA2” value in [8] was “concurrent loss”. Also, the “efficacy in inhibiting cell growth” value in assay [9] is reported as “sub-micromolar efficacy”. Besides, the “loss of wild-type FOXO1” value in assay [10] was “FOXO1 loss; also recorded: concurrent loss”.
For `O=C1CCC(N2C(=O)c3ccc(NCCCCCCCCOCCc4cccc(N5C[C@H]6C[C@@H]5CN6/C=C/C(=O)c5ccccc5O)c4)cc3C2=O)C(=O)N1` (some centres unmarked) [SMARCA4-31], the “degradation of dedicated PBAF subunit PBRM1” value in assay [1] is given as “specific degradation”. Besides, in assay [1] (RH4 cells, 1 µM, FIG. 4), the “extent of PBRM1 degradation, reversibility experiment” value is “More complete degradation”. In [2], the “abundance of BAF subunit DPF2” value is listed as “remained intact”. Besides, in assay [3], the “degradation of core SWI/SNF subunit SMARCC1” value is listed as “degraded”. In [4], the “loss of the PAX3-FOXO1 fusion” value is “loss of the PAX3-FOXO1 fusion; also recorded: concurrent loss” and the “PROTAC concentration at which PAX3-FOXO1 is fully depleted” value came to 62.5 nM. Besides, the “extent of PAX3-FOXO1 degradation, reversibility experiment” value in [4] (1 µM, FIG. 4) is “More complete degradation”. Further, the “PAX3-FOXO1 depletion by LC/MS” value in [11] is “depleted”. Moreover, the “MYOD1 depletion by LC/MS” value in [12] is reported as “depleted”. For the same compound, the “efficacy in inhibiting cell growth” value in assay [5] is on record as “sub-micromolar efficacy”. For the same compound, the “abundance of core subunit SMARCB1” value in assay [6] is “remained intact”. For the same compound, in [7], the “abundance of GBAF subunit BRD9” value was “remained intact”. Besides, the “chromatin accessibility (fragment length signatures)” value in assay [13] is given as “alterations to the accessibility landscape”. In addition, the “PROTAC exposure time until ATPase depletion is observed” value in [8] (RH4 cells) is recorded as “approximately 20 hours”. In addition, the “extent of SMARCA4 degradation, reversibility experiment” value in assay [8] (RH4 cells, 24 hours, 1 µM, FIG. 4) is on record as “More complete degradation”. In [8] (RH4 cells, 24 hours), the “dose required for maximal ATPase depletion” value worked out at 125 nM. Besides, the “loss of ATPases SMARCA4/SMARCA2” value in assay [8] is listed as “concurrent loss”. Moreover, the “efficacy in inhibiting cell growth” value in [9] is recorded as “sub-micromolar efficacy”. The “loss of wild-type FOXO1” value in assay [10] is listed as “FOXO1 loss; also recorded: concurrent loss”.

For the origin of these results see patent US20260207753A1, “PROTAC DEGRADATION OF FACTORS PAX3 AND FOXO1” (THE RESEARCH INSTITUTE AT NATIONWIDE CHILDREN'S HOSPITAL, priority 2022, published 2026).
